Data from paper PMC2966823 (Journal of the American Chemical Society, 2010).

Key:
FGFR1/FLT2 = FGFR1/FLT2 (Homo sapiens, UniProt P11362); assay: split-luciferase three-hybrid displacement of Jun-staurosporine, […] inhibitor; type: cell-based; settings: read-out: % inhibition at 10 μM
[1] = target: cAMP dependent protein kinase A, catalytic subunit α (PKA) (Homo sapiens, UniProt P17612); assay: as above; type: cell-based; settings: read-out: % inhibition at 10 μM

Chain of FGFR1/FLT2 (P11362 478-767 limits assumed): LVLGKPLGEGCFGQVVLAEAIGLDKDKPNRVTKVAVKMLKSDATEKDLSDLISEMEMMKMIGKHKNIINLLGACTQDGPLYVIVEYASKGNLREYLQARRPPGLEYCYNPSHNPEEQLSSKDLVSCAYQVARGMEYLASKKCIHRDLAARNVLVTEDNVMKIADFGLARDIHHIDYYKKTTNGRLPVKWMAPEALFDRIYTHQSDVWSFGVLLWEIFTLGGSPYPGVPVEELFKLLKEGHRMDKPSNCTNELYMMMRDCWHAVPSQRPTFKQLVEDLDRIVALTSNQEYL

| SMILES | inhibition at 10 µM (FGFR1/FLT2) [%] | inhibition at 10 µM [1] [%] |
| --- | --- | --- |
| CC(C)[C@H](CO)Nc1nc(Nc2cc(N)cc(Cl)c2)c2ncn(C(C)C)c2n1 [compound 6, aminopurvalanol A] | 68 |  |
| CC(C)[C@H](CO)Nc1nc(Nc2ccc(C(=O)O)c(Cl)c2)c2ncn(C(C)C)c2n1 [compound 8, purvalanol B] | 58 |  |
| O=S(=O)(NCCNC/C=C/c1ccc(Br)cc1)c1cccc2cnccc12 [compound 5, H89] |  | 67 |
